# “Also recorded” adds a separate entry of the source.
# Tests used:
# [1] = tested on: foot- and -mouth disease virus, type A; conditions: mouse, in vivo
# [2] = tested on: foot-and-mouth desease virus, type A, Holland; parameters: species or system Holland; Guinea pigs; conditions: guinea pig, in vivo, sc
# [3] = tested on: foot-and-mouth desease virus, type C, Turup; parameters: species or system Turup; Guinea pigs; conditions: guinea pig, in vivo
# [4] = Complexing capability, diffusion test using a membrane cell; type: binding; conditions: aqueous, alcohol containing solution; relative to free crown ether
# [5] = Elimination of Cs^137 from blood of mice into urine; type: in vivo
# Experimental: Tests were performed at Fors.o slashed.gsstation Ris.o slashed., Department of Health, Roskilde, Denmark, to investigate the ability of the dextran-crown ether compounds to remove radioactive cesium, Cs^137, from the blood of mice.
# Three tests were run, each using five mice.
# As basis solution for use as injection liquid or for use as basis for the preparation of such, an aqueous 0,9% sodium chloride solution was used containing Cs^137 in an amount corresponding to 3000 Bq/ml.
# In each test the mice were kept in a cage, the bottom of which was a net below which a funnel was arranged for collecting the urine of the mice. After each collection of urine the bottom was flushed with water, and urine plus flushing water were collected and diluted with water to 20 ml before the radioactivity were determined by means of a Geiger counting apparatus.
# By this test each mouse was injected with 0,1 ml af the basis solution and thus received 300 Bq Cs^137. The time for this injection, below designated to, was 11:30 .
# After one hour each mouse was injected with 0,4 ml of a 6 w/v-% aqueous solution of the dextran-O-carbonylbenzo-18-crown-6-product produced according to Example 1, corresponding to 24 mg of this product per mouse.
# Collection of urine with subsequent determination of radioactivity was initiated one hour and […], corresponding to 1.35 hours after to and was continued as it appears from Table I below.
# 47.81 hours after to a further injection of 0.5 ml of the 6%'s dextran-crown ether-solution was made on each mouse and the collection of urine and determination of radioactivity therein were continued.
# At this test the injection solution was a mixture of 2 ml of the above mentioned Cs^137 -containing solution and 8 ml of the dextran-crown ether solution used in Test I.
# Each mouse was injected with 0,5 ml of the mixture and thus received 300 Bq Cs^137 and 24 mg dextran-crown ether. Collection of urine and further crown ether injection (0,5 ml 6% solution) was made as in Test 1 as it appears from Table II below.
# By this comparison test the injection solution was a mixture of 2 ml of the above mentioned basis solution containing 3000 Bq/ml Cs^137 and 8 ml aqueous 0,9% by weight NaCl-solution. Each mouse was injected using […] of the mixture and thus received 300 Bq Cs^137.
# mice = experiment: Toxicity on intravenous injection in mice
# Experimental: The content of free crown ether compound in this product was not analysed.
# (§1) The product A was at a concentration of 1% injected intraveneously in mice which each received a dose of 0.4 ml corresponding to 32×10^-4 g crown ether.
# The product B was tested similarily but at a concentration of 10%. The dose was here 0.4 ml corresponding to 6.0×10^-3 g crown ether compound. The content of free crown ether compound in this dose amounted to 1.2×10^-4 g.
# Two series of comparison tests were also made with the crown ether monomer.
# In the first test benzo-18-crown-6 was injected as aqueous solution having a concentration of 0.8% at a dose of 0.4 ml per animal, corresponding to 32×10^-4 g crown ether.
# In the ether comparison test benzo-18-crown-6 was used at a concentration of 0.08%. Also here the dose was 0.4 ml corresponding to 3.2×10^-4 g crown ether.
# [6] = Complexing capability, cesium binding in dialysis hose
# Experimental: The resulting solution was transferred to a hose for dialysis having a pore radius of approximately 1.5 nm.
# After 12 hours samples taken from the liquid inside the dialysis hose and from the liquid outside the hose in the graduated glass, resp., were measured by means of a gamma counter operating at 0.66 MeV, to determine the ratio of the Cs concentration inside the dialysis hose to the Cs concentration outside the hose. On the basis of these determinations the corresponding amounts of Cs in the two liquids were calculated.
# Coccidia [7] = conditions: tissue culture; J. Med. Chem. 1983, 26, 590-592; cited from earlier work
# Coccidia [8] = conditions: poultry, admixed in the fodder; cited from earlier work
# [9] = Elimination in urine of mice (UV analysis); type: in vivo; conditions: i.v., 1% solution, 0.4 ml
# Experimental: as §1
# [10] = 0.08% solution, 0.4 ml, 3.2×10^-4 g crown ether
molecule,measurement,setting,value
dextran-O-carbonylbenzo-18-crown-6 [dextran-crown ether],effect on viral activity,[1],impedes the viral activity
same,significance of titre difference versus virus control,[1],not significant
same,reduction of the number of blisters,[2],a reduction of the number of blisters was obtained
same,antiviral activity,[3],exhibited an antiviral activity at all three days
same,"capability of complexing metals, such as sodium ions",[4],has been maintained
same,radioactivity in urine + flushing water,"[5]; Test 1, 1.35 hours after to, 24 mg per mouse given one hour after Cs^137",6978 counts
same,radioactivity in urine + flushing water,"[5]; Test 1, 4.63 hours after new to (second injection)",3533 counts
same,radioactivity in urine + flushing water,"[5]; Test 1, 4.83 hours after to",3684 counts
same,radioactivity in urine + flushing water,"[5]; Test 1, 8.67 hours after new to (second injection)",2937 counts
same,radioactivity in urine + flushing water,"[5]; Test 1, 8.88 hours after to",8280 counts
same,radioactivity in urine + flushing water,"[5]; Test 1, 20.07 hours after to",17001 counts
same,radioactivity in urine + flushing water,"[5]; Test 1, 22.28 hours after new to (second injection)",6391 counts
same,radioactivity in urine + flushing water,"[5]; Test 1, 44.92 hours after to",17368 counts
same,radioactivity in urine + flushing water,"[5]; Test 1, 47.78 hours after to",2213 counts
same,"Counts, total (accumulated)","[5]; Test 1, time 1.35",6978 counts
same,"Counts, total (accumulated)","[5]; Test 1, time 4.83",10662 counts
same,"Counts, total (accumulated)","[5]; Test 1, time 20.07",35943 counts
same,"Counts, total (accumulated)","[5]; Test 1, time 44.92",53311 counts
same,"Counts, total (accumulated)","[5]; Test 1, time 47.78",55524 counts
same,"Counts, total (accumulated)","[5]; Test 1, time 52.41",59057 counts
same,"Counts, total (accumulated)","[5]; Test 1, time 56.45",61994 counts
same,"Counts, total (accumulated)","[5]; Test 1, time 67.06",68385 counts
same,radioactivity in urine + flushing water,"[5]; Test 2, 0.87 hours after to, 24 mg per mouse injected in mixture with Cs^137",4498 counts
same,radioactivity in urine + flushing water,"[5]; Test 2, 4.33 hours after new to (second injection)",3659 counts
same,radioactivity in urine + flushing water,"[5]; Test 2, 4.62 hours after to",11634 counts
same,radioactivity in urine + flushing water,"[5]; Test 2, 8.40 hours after new to (second injection)",3222 counts
same,radioactivity in urine + flushing water,"[5]; Test 2, 8.65 hours after to",8566 counts
same,radioactivity in urine + flushing water,"[5]; Test 2, 19.82 hours after to",16805 counts
same,radioactivity in urine + flushing water,"[5]; Test 2, 22.08 hours after new to (second injection)",4966 counts
same,radioactivity in urine + flushing water,"[5]; Test 2, 44.65 hours after to",12901 counts
same,radioactivity in urine + flushing water,"[5]; Test 2, 47.53 hours after to",2728 counts
same,"Counts, total (accumulated)","[5]; Test 2, time 0.87",4498 counts
same,"Counts, total (accumulated)","[5]; Test 2, time 8.65",24698 counts
same,"Counts, total (accumulated)","[5]; Test 2, time 19.82",41503 counts
same,"Counts, total (accumulated)","[5]; Test 2, time 44.65",54411 counts
same,"Counts, total (accumulated)","[5]; Test 2, time 47.53",57139 counts
same,"Counts, total (accumulated)","[5]; Test 2, time 51.86",60798 counts
same,"Counts, total (accumulated)","[5]; Test 2, time 55.93",64020 counts
same,"Counts, total (accumulated)","[5]; Test 2, time 69.53",68986 counts
same,speed of excretion of Cs^137 after the second injection,[5]; approximately 8 hours after second injection,somewhat increased speed of excretion
same,more radioactive Cs excreted than in comparison Test 3,"[5]; approximately 70 hours, Tests 1 and 2 versus Test 3",approximately 17%
same,speed of elimination of Cs^137,[5]; first 5-8 hours after the first injection,significantly increased
c1ccc2c(c1)OCCOCCOCCOCCOCCO2 [benzo-18-crown-6],duration of heavy convulsions,mice; [10],approximately 15 minutes
same,symptoms and survival,mice; [10],heavy convulsions appeared; also recorded: the animals survived
same,reaction compared with product (B),mice; 3.2×10^-4 g pure compound versus product (B) containing 1.2×10^-4 g unbound,significantly heavier reaction
same,death of animals,"mice; aqueous solution 0.8%, 0.4 ml, 32×10^-4 g crown ether",The animals died immediately before the injection was completed
dextran-hydroxyethylbenzo-18-crown-6,capability of catching and binding cesium ions,[6],substantial capability of catching and binding cesium ions
same,Cs in liquid inside the hose,[6]; after 12 h,658 µg
same,Cs in liquid outside the hose,[6]; after 12 h,1362 µg
same,Cs conc. inside hose/Cs conc. outside hose,"[6]; after 12 h, gamma counter",1.2
same,Cs conc. inside hose/Cs conc. outside hose,[6]; initially,1
same,Cs in liquid inside the hose,[6]; initially,520 µg
same,Cs in liquid outside the hose,[6]; initially,1500 µg
T40-Dextran-O-carbonylbenzo-18-crown-6 [product B],symptoms after injection,"mice; i.v., 10% solution, 0.4 ml",subdued after having received this dose and had bristled furs; also recorded: thereafter they did not shown any symptoms
same,duration of being subdued with bristled furs,"mice; i.v., 10% solution, 0.4 ml, several animals",approximately 30 minutes
c1ccc2c(c1)OCCOCCOCCOCCOc1ccccc1OCCOCCOCCOCCO2 [dibenzo-30-crown-10],anti-coccidial activity,Coccidia [7],have an anti-coccocidal activity in tissue culture tests
same,in vivo anti-coccidial effect,Coccidia [8],no in vivo effect was demonstrated
T40-Dextran-O-carbonylbenzo-18-crown-6 [product A],time after which compound was excreted substantially completely in urine,[9],3 to 5 h
same,signs of illness,"mice; i.v., 1% solution, 0.4 ml",did not show any sign of illness
